# Assay results published in US11174243B2, “Succinate forms and compositions of Bruton's tyrosine kinase inhibitors” (Sunesis Pharmaceuticals, Inc., priority 2016, dated 2021).
# Assays:
# [1] = Solubility of Compound 2 in solvent systems (slurries, HPLC); assay type: physicochemical; conditions: thermodynamic from solid, after one day at 20° C.
# Protocol: Slurries were set up in the solvents reported in Table 1 by weighing approximately 200 mg of Compound 2, suspending the solid in 0.5 mL of solvent and checking that excess solid remained un-dissolved. The prepared samples were also used to calculate Compound 2 solubility in the solvent systems used.
# The slurries prepared for the long term slurry experiments were sampled after one day at 20° C. to measure the solubility of Compound 2 in the solvent systems used. The solubility data were obtained by HPLC with respect to a response factor; six samples of Compound 2, dissolved in acetonitrile/methanol 40/60 at known concentration, were prepared and injected in HPLC. The resulting HPLC areas were used to calculate the HPLC response factor for Compound 2 (data not shown).
# [2] = Phase 1a study Stage 2: food effect on pharmacokinetics; assay type: in vivo, human; conditions: 200 mg oral
# Protocol: In Stage 2, the effects of food on the pharmacokinetics of Compound 2 were assessed. In this stage, 12 newly enrolled subjects (6 males, 6 females; Cohort 6) were administered Compound 2 on two separate occasions, either in a fasting or fed state, with a period of ≥72 hours between the two doses. The Compound 2 dose level was 200 mg. The 12 subjects were randomized such that 6 subjects (3 males, 3 females) received Compound 2 after an overnight fast, and 6 subjects (3 males, 3 females) received Compound 2 after ingestion of a standardized, high-fat meal. Approximately 4 days later, the subjects were crossed over so that those who received Compound 2 without food in the first period then received the drug with food, while those who received Compound 2 with food in the first period then received the drug without food.
# The effects of food on the pharmacokinetics of Compound 2 were assessed after oral administration of 200 mg Compound 2 to 12 subjects in the fed and fasted states. The absorption rate of Compound 2 in fed state was decreased, with Tmax delayed by 2 hours and Cmax decreased by about 30%; however, there was no impact on the extent of absorption (AUC) and elimination (T½) of Compound 2.
# BMX = biological target: T1, BMX (Homo sapiens, UniProt P51813); experiment: Kinase selectivity, BMX (Kd)
# T1 sequence (P51813 1-675): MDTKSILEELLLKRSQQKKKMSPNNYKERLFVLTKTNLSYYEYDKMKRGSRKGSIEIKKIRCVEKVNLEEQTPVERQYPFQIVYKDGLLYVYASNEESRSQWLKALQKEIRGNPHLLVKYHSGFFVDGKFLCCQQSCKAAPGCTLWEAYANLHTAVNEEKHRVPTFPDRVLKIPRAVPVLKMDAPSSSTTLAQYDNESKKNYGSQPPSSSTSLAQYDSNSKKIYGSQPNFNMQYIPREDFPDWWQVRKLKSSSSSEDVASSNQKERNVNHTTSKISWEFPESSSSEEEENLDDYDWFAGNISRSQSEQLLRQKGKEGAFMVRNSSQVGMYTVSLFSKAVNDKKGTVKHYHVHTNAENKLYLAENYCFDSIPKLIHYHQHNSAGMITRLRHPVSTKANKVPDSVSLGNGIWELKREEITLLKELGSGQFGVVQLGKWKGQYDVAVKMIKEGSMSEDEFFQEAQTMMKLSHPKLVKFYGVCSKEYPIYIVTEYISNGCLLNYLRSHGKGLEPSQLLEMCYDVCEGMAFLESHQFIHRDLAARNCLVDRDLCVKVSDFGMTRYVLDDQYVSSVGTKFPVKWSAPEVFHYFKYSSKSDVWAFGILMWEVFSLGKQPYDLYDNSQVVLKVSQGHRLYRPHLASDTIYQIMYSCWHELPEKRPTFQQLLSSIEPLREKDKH
# TXK = biological target: T2, TXK (Homo sapiens, UniProt P42681); experiment: Kinase selectivity, TXK (Kd)
# T2 sequence (P42681 1-527): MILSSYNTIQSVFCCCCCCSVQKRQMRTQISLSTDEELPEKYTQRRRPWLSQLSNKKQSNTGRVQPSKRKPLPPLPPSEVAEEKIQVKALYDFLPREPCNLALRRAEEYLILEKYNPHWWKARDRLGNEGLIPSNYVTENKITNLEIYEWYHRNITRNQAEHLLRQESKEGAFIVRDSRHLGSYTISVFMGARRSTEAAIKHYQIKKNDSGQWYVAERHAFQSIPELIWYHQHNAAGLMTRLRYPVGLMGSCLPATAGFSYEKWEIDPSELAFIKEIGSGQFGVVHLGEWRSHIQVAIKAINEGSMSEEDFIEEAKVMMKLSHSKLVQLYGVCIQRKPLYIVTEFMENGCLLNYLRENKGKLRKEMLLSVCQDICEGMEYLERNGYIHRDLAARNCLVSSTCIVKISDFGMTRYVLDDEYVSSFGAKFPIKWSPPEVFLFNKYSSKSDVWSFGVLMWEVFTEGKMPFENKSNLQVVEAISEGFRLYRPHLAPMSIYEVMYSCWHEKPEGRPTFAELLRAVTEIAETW
# ITK = biological target: T3, ITK (Homo sapiens, UniProt Q08881); experiment: In vitro kinase assay, ITK
# T3 sequence (Q08881 1-620): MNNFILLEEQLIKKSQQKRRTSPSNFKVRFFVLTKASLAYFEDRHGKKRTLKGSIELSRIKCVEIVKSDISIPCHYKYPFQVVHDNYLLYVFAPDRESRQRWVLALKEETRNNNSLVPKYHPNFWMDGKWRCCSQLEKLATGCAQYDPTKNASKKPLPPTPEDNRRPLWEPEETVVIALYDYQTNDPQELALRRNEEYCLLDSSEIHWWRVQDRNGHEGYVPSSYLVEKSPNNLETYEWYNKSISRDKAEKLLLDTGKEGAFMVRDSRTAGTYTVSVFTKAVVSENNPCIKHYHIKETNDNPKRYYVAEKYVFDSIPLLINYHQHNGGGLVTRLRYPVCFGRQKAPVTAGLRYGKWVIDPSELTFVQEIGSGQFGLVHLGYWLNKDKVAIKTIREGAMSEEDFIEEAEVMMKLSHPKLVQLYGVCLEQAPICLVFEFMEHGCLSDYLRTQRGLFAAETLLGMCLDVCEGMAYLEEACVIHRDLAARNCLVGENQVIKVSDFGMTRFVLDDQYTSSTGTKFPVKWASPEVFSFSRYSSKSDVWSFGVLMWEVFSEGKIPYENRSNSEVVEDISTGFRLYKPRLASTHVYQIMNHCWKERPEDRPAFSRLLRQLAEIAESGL
"solubility at 1 day ([1]; organic solvent or mixture, 1,4-dioxane) [mg/mL]","solubility at 1 day ([1]; organic solvent or mixture, 2-propanol/water 90/10) [mg/mL]","solubility at 1 day ([1]; organic solvent or mixture, 2-propanol) [mg/mL]","solubility at 1 day ([1]; organic solvent or mixture, Acetone) [mg/mL]","solubility at 1 day ([1]; organic solvent or mixture, Cyclohexanone) [mg/mL]","solubility at 1 day ([1]; organic solvent or mixture, Ethanol/water 90/10) [mg/mL]","solubility at 1 day ([1]; organic solvent or mixture, Ethanol) [mg/mL]","solubility at 1 day ([1]; organic solvent or mixture, Ethyl acetate) [mg/mL]","solubility at 1 day ([1]; organic solvent or mixture, Isopropyl acetate) [mg/mL]","solubility at 1 day ([1]; organic solvent or mixture, Methanol/water 90/10) [mg/mL]","solubility at 1 day ([1]; organic solvent or mixture, Methanol) [mg/mL]","solubility at 1 day ([1]; organic solvent or mixture, Tert-butylmethyl ether) [mg/mL]",solubility at 1 day ([1]; Water) [mg/mL],"apparent total body clearance and volume of distribution, fed vs fasted [2]",impact of food on extent of absorption (AUC) and elimination (T½) ([2]; fed vs fasted),"decrease of Cmax in fed state ([2]; fed vs fasted, 12 subjects)","Tmax ([2]; both sexes, human, plasma, fed vs fasted, 12 subjects, read-out: delay of Tmax in fed state) [h]",Kd (BMX) [nM],Kd (TXK) [nM],IC50 (ITK) [nM],Compound
22,41,11,11,16,49,21,2,1,100,103,1,1,comparable in both food conditions,no impact,about 30%,2,–,–,–,NC(=O)[C@H]1CCN(c2ncnc(N)c2F)C[C@@H]1N1CCC[C@@H](Nc2cc(Cl)cc(C(F)(F)F)c2)C1=O [Compound 2]
–,–,–,–,–,–,–,–,–,–,–,–,–,–,–,–,–,≥ 200,≥ 200,24,"NC(=O)[C@H]1CCN(c2ncnc(N)c2F)C[C@@H]1N1CCC[C@@H](Nc2cc(Cl)cc(C(F)(F)F)c2)C1=O [Compound 1, (3R,3′R,4′S)-1′-(6-amino-5-fluoropyrimidin-4-yl)-3-((3-chloro-5-(trifluoromethyl)phenyl)amino)-2-oxo-[1,3′-bipiperidine]-4′-carboxamide]"
